Experimental data published in the NIST ThermoML archive (doi:10.1021/je9002306).

Tests used:
[1] = mn = molality of the nth substance listed, in mol/kg; conditions: 298.15 K, 101.3 kPa, Liquid, Vibrating tube method
[2] = cn = amount concentration of the nth substance listed, in mol/dm3; conditions: 298.15 K, 101.3 kPa, Liquid, Wayne-Kerr 6430B Auto Balance Bridge

CCCCCCCCCCn1cc[n+](C)c1.[Br-] [1-decyl-3-methylimidazolium bromide] + CN(C)C=O
Conditions	mass density [kg/m3]	molar conductivity [S·m2/mol]
[1], m1 = 0.004548	944.601	–
[1], m1 = 0.009331	944.904	–
[1], m1 = 0.01416	945.206	–
[1], m1 = 0.01889	945.493	–
[1], m1 = 0.02351	945.774	–
[1], m1 = 0.02843	946.065	–
[1], m1 = 0.03329	946.353	–
[1], m1 = 0.03813	946.64	–
[1], m1 = 0.04346	946.942	–
[1], m1 = 0.04852	947.237	–
[2], c1 = 0.0001732	–	0.007794
[2], c1 = 0.0002484	–	0.007742
[2], c1 = 0.0003119	–	0.007708
[2], c1 = 0.0003859	–	0.007672
[2], c1 = 0.0004585	–	0.007636
[2], c1 = 0.0005275	–	0.007607
[2], c1 = 0.0005939	–	0.007575
[2], c1 = 0.0006636	–	0.007549
[2], c1 = 0.0007275	–	0.007523
[2], c1 = 0.0007761	–	0.007502

CCCCCCCCCCn1cc[n+](C)c1.[Br-] [1-decyl-3-methylimidazolium bromide] + C[S+](C)[O-]
Conditions	mass density [kg/m3]	molar conductivity [S·m2/mol]
[1], m1 = 0.005147	1095.4	–
[1], m1 = 0.00868	1095.45	–
[1], m1 = 0.01336	1095.53	–
[1], m1 = 0.01682	1095.59	–
[1], m1 = 0.02087	1095.65	–
[1], m1 = 0.02779	1095.77	–
[1], m1 = 0.03347	1095.87	–
[1], m1 = 0.04096	1096	–
[1], m1 = 0.04462	1096.07	–
[1], m1 = 0.05299	1096.22	–
[2], c1 = 0.0002071	–	0.003508
[2], c1 = 0.0003447	–	0.003485
[2], c1 = 0.0004551	–	0.003472
[2], c1 = 0.000577	–	0.003459
[2], c1 = 0.0006934	–	0.003446
[2], c1 = 0.0008066	–	0.003433
[2], c1 = 0.0008974	–	0.003426
[2], c1 = 0.001043	–	0.003413
[2], c1 = 0.001234	–	0.003397

CCCCCCCCCCn1cc[n+](C)c1.[Br-] [1-decyl-3-methylimidazolium bromide] + OCCO
Conditions	mass density [kg/m3]	molar conductivity [S·m2/mol]
[1], m1 = 0.005851	1109.99	–
[1], m1 = 0.0106	1110	–
[1], m1 = 0.01551	1110	–
[1], m1 = 0.01977	1110.01	–
[1], m1 = 0.02479	1110.01	–
[1], m1 = 0.02646	1110.02	–
[1], m1 = 0.03544	1110.02	–
[1], m1 = 0.03722	1110.02	–
[1], m1 = 0.04453	1110.03	–
[2], c1 = 0.0003546	–	0.000667
[2], c1 = 0.0004359	–	0.000666
[2], c1 = 0.0005147	–	0.000664
[2], c1 = 0.0005865	–	0.000663
[2], c1 = 0.0006739	–	0.000661
[2], c1 = 0.0007633	–	0.00066
[2], c1 = 0.0008415	–	0.000659
[2], c1 = 0.0009056	–	0.000658
[2], c1 = 0.0009847	–	0.000657
[2], c1 = 0.001065	–	0.000656

CCCCCCCCCCCCn1cc[n+](C)c1.[Br-] [1-dodecyl-3-methylimidazolium bromide] + CN(C)C=O
Conditions	mass density [kg/m3]	molar conductivity [S·m2/mol]
[1], m1 = 0.003861	944.545	–
[1], m1 = 0.008055	944.798	–
[1], m1 = 0.0123	945.047	–
[1], m1 = 0.01627	945.277	–
[1], m1 = 0.02032	945.508	–
[1], m1 = 0.02446	945.745	–
[1], m1 = 0.02703	945.89	–
[1], m1 = 0.03337	946.237	–
[1], m1 = 0.03725	946.45	–
[1], m1 = 0.04099	946.651	–
[2], c1 = 0.0001357	–	0.007691
[2], c1 = 0.0001826	–	0.007656
[2], c1 = 0.0002263	–	0.007631
[2], c1 = 0.0002718	–	0.007605
[2], c1 = 0.0003169	–	0.007581
[2], c1 = 0.0003578	–	0.007564
[2], c1 = 0.0004043	–	0.007541
[2], c1 = 0.0004399	–	0.007527
[2], c1 = 0.0004725	–	0.00751
[2], c1 = 0.0005219	–	0.007494

CCCCCCCCCCCCn1cc[n+](C)c1.[Br-] [1-dodecyl-3-methylimidazolium bromide] + C[S+](C)[O-]
Conditions	mass density [kg/m3]	molar conductivity [S·m2/mol]
[1], m1 = 0.00268	1095.36	–
[1], m1 = 0.004967	1095.36	–
[1], m1 = 0.007868	1095.37	–
[1], m1 = 0.01038	1095.38	–
[1], m1 = 0.01304	1095.39	–
[1], m1 = 0.016	1095.41	–
[1], m1 = 0.01873	1095.42	–
[1], m1 = 0.02082	1095.43	–
[1], m1 = 0.02457	1095.44	–
[1], m1 = 0.02736	1095.46	–
[2], c1 = 0.0003026	–	0.003442
[2], c1 = 0.0003758	–	0.003429
[2], c1 = 0.0004555	–	0.003416
[2], c1 = 0.0005343	–	0.003406
[2], c1 = 0.0006078	–	0.003397
[2], c1 = 0.0006771	–	0.003389
[2], c1 = 0.0007464	–	0.003381
[2], c1 = 0.0008059	–	0.003374
[2], c1 = 0.0009021	–	0.003365

CCCCCCCCCCCCn1cc[n+](C)c1.[Br-] [1-dodecyl-3-methylimidazolium bromide] + OCCO
Conditions	mass density [kg/m3]	molar conductivity [S·m2/mol]
[1], m1 = 0.003873	1109.91	–
[1], m1 = 0.007663	1109.87	–
[1], m1 = 0.01013	1109.85	–
[1], m1 = 0.0133	1109.82	–
[1], m1 = 0.0168	1109.78	–
[1], m1 = 0.02023	1109.75	–
[1], m1 = 0.03123	1109.63	–
[1], m1 = 0.03429	1109.6	–
[2], c1 = 0.000348	–	0.000654
[2], c1 = 0.0004233	–	0.000653
[2], c1 = 0.0004995	–	0.000652
[2], c1 = 0.0005785	–	0.00065
[2], c1 = 0.0006521	–	0.000649
[2], c1 = 0.0007213	–	0.000648
[2], c1 = 0.0008076	–	0.000646
[2], c1 = 0.0008687	–	0.000645
[2], c1 = 0.0009337	–	0.000644
[2], c1 = 0.001012	–	0.000643

CCCCCCCCn1cc[n+](C)c1.[Br-] [1-methyl-3-octylimidazolium bromide] + CN(C)C=O
Conditions	mass density [kg/m3]	molar conductivity [S·m2/mol]
[1], m1 = 0.0036	944.562	–
[1], m1 = 0.00742	944.824	–
[1], m1 = 0.01114	945.075	–
[1], m1 = 0.01485	945.316	–
[1], m1 = 0.01862	945.557	–
[1], m1 = 0.02243	945.792	–
[1], m1 = 0.02634	946.03	–
[1], m1 = 0.03009	946.26	–
[1], m1 = 0.03685	946.653	–
[1], m1 = 0.04079	946.877	–
[2], c1 = 0.0002813	–	0.007841
[2], c1 = 0.0003412	–	0.007808
[2], c1 = 0.0003997	–	0.007775
[2], c1 = 0.0004885	–	0.007732
[2], c1 = 0.0005571	–	0.0077
[2], c1 = 0.0006412	–	0.007663
[2], c1 = 0.0007099	–	0.007638
[2], c1 = 0.0007743	–	0.007612
[2], c1 = 0.000834	–	0.00759
[2], c1 = 0.0008925	–	0.007568

CCCCCCCCn1cc[n+](C)c1.[Br-] [1-methyl-3-octylimidazolium bromide] + C[S+](C)[O-]
Conditions	mass density [kg/m3]	molar conductivity [S·m2/mol]
[1], m1 = 0.003697	1095.43	–
[1], m1 = 0.007705	1095.54	–
[1], m1 = 0.01147	1095.63	–
[1], m1 = 0.01568	1095.74	–
[1], m1 = 0.01953	1095.84	–
[1], m1 = 0.02373	1095.95	–
[1], m1 = 0.02785	1096.05	–
[1], m1 = 0.03185	1096.15	–
[1], m1 = 0.03581	1096.25	–
[1], m1 = 0.03956	1096.34	–
[2], c1 = 0.0002816	–	0.003566
[2], c1 = 0.0003649	–	0.003551
[2], c1 = 0.0004495	–	0.00354
[2], c1 = 0.0005343	–	0.003529
[2], c1 = 0.000601	–	0.003521
[2], c1 = 0.000699	–	0.00351
[2], c1 = 0.0007785	–	0.003501
[2], c1 = 0.0008592	–	0.003493
[2], c1 = 0.0009426	–	0.003485

CCCCCCCCn1cc[n+](C)c1.[Br-] [1-methyl-3-octylimidazolium bromide] + OCCO
Conditions	mass density [kg/m3]	molar conductivity [S·m2/mol]
[1], m1 = 0.006765	1110.04	–
[1], m1 = 0.007869	1110.06	–
[1], m1 = 0.01325	1110.12	–
[1], m1 = 0.0167	1110.22	–
[1], m1 = 0.02074	1110.25	–
[1], m1 = 0.02364	1110.34	–
[1], m1 = 0.03075	1110.39	–
[1], m1 = 0.03492	1110.42	–
[1], m1 = 0.03798	1110.48	–
[2], c1 = 0.0003384	–	0.000678
[2], c1 = 0.0004129	–	0.000677
[2], c1 = 0.0004841	–	0.000675
[2], c1 = 0.0005608	–	0.000674
[2], c1 = 0.0006367	–	0.000673
[2], c1 = 0.0007095	–	0.000672
[2], c1 = 0.0007842	–	0.000671
[2], c1 = 0.0008592	–	0.00067
[2], c1 = 0.0009615	–	0.000669
[2], c1 = 0.001054	–	0.000668

C[S+](C)[O-] [dimethyl sulfoxide] + CCCCCCCCCCCCn1cc[n+](C)c1.[Br-]
Conditions	mass density [kg/m3]
[1], m2 = 0	1095.35

C[S+](C)[O-] [dimethyl sulfoxide] + CCCCCCCCCCn1cc[n+](C)c1.[Br-]
Conditions	mass density [kg/m3]
[1], m2 = 0	1095.33

C[S+](C)[O-] [dimethyl sulfoxide] + CCCCCCCCn1cc[n+](C)c1.[Br-]
Conditions	mass density [kg/m3]
[1], m2 = 0	1095.33

CN(C)C=O [dimethylformamide] + CCCCCCCCCCCCn1cc[n+](C)c1.[Br-]
Conditions	mass density [kg/m3]
[1], m2 = 0	944.305

CN(C)C=O [dimethylformamide] + CCCCCCCCCCn1cc[n+](C)c1.[Br-]
Conditions	mass density [kg/m3]
[1], m2 = 0	944.305

CN(C)C=O [dimethylformamide] + CCCCCCCCn1cc[n+](C)c1.[Br-]
Conditions	mass density [kg/m3]
[1], m2 = 0	944.305
